pIC50: −log10 of the molar value. Calls of active or inactive are those of the source. No rule for the calls is given here.
Target: Rho GTPase-activating protein 1 (Homo sapiens) (UniProt Q07960)
Test: ARHGAP1 GAP activity inhibitors on Rac1 – biochemical, Biomol green phosphate read-out, selectivity assay for MgcRacGAP inhibitor project, dose response (AID 652148)
Details: p50RhoGAP-stimulated Rac1 GTP hydrolysis; for inhibition: at 100 µM (top of the series)

Chain of Rho GTPase-activating protein 1 (Homo sapiens) (Q07960 whole entry, looked up): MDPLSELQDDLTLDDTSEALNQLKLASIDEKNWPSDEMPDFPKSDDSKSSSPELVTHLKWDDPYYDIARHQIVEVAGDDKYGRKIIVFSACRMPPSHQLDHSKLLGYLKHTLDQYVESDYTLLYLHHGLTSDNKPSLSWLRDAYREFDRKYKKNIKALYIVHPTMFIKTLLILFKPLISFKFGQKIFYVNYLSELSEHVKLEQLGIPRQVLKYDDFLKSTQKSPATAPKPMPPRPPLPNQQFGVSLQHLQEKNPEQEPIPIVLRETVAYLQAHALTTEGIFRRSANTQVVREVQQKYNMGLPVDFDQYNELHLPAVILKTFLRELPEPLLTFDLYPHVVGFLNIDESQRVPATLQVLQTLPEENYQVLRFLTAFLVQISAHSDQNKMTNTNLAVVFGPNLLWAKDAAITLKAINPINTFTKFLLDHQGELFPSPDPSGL

COc1ccc(-n2sc3ccccc3c2=O)cc1
inhibition: inactive

CCN1CCN(Cc2ccc(NC(=O)c3ccc(C)c(/C=C/c4cnc(Nc5cc(N6CCNCC6)nc(C)n5)cn4)c3)cc2C(F)(F)F)CC1
pIC50: 4.27

O=c1c2sc3ccccc3c2[nH]c(=S)n1CCN1CCOCC1
inhibition: inactive

CN(C)c1nc(=NCc2cccs2)ss1
pIC50: 4.83

CN(C)c1ccc(C=c2c3cc(O)ccc3n3c2cc(-c2ccccc2)[n+]3C)cc1
pIC50: 4.44

O=c1c2ccccc2sn1-c1ccc(Cl)cc1
pIC50: 4.91

Cc1c(Cl)sn(-c2ccc(Cl)cc2)c1=O
inhibition: inactive

O=c1c2ccccc2sn1-c1ccc(Cl)cc1Cl
inhibition: inactive

CC(=O)Nc1ccc2sn(-c3ccccc3)c(=O)c2c1
pIC50: 4.65

COc1ccc(/C=N/Nc2cc(C)nc3ccc(OC)cc23)c(OC)c1
inhibition: inactive

O=C1C=CC(=O)c2c(O)c(N3CCN(CCOCCO)CC3)c(Br)c(O)c21
pIC50: 4.49

O=c1c2ccccc2sn1-c1cccc(Cl)c1
pIC50: 4.95

Nc1n[nH]c(=S)n1/N=C1/C(=O)Nc2ccccc21
inhibition: inactive

O=C(O)C1CSC(c2ccco2)N1 (stereo unspecified)
pIC50: 4.79

Cc1cc(C)c2c(=N)c3ccccc3n(CCCCCCCCn3c4ccccc4c(=N)c4c(C)cc(C)nc43)c2n1
pIC50: 4.65

O=C(O)c1cccc(-n2sc3ccccc3c2=O)c1
pIC50: 4.99

CCN(CC)c1ccc(C(=C2C=CC(=[N+](CC)CC)C=C2)c2ccc(N(CC)CC)cc2)cc1
pIC50: 4.66

O=C1C(Cl)=C(NC(=O)c2ccccc2)C(=O)C(Cl)=C1NC(=O)c1ccccc1
pIC50: 4.34

Cc1ccc(-n2sc3cc(F)ccc3c2=O)c(C)c1
inhibition: inactive

Cc1ccc(C)c(-n2sc3ccc(F)cc3c2=O)c1
inhibition: inactive

CC1OC(CC(=O)O)CC2=C1C(=O)c1c(O)cccc1C2=O (stereo unspecified)
pIC50: 5.06

O=c1c2ccc(F)cc2sn1-c1ccccc1
inhibition: inactive

CC1=NNC(=O)C1Br (stereo unspecified)
inhibition: inactive

O=C(Nc1ccccc1Cl)/C(Cl)=C(\Cl)S(=O)c1ccccc1 (stereo unspecified)
pIC50: 4.68

CN(C)c1ccc(/C=C/c2cc[n+](C)c3ccccc23)cc1
inhibition: inactive

COc1ccc(-n2sc3ccc(F)cc3c2=O)cc1
pIC50: 4.82

O=c1c2ccccc2sn1-c1ccccc1F
inhibition: inactive

O=C1C(SCCO)=C(SCCO)C(=O)c2ccccc21
inhibition: inactive

O=C1C=CC(=O)c2c(O)c(N3CCN(CCO)CC3)c(Cl)c(O)c21
pIC50: 4.44

O=c1c2cc(F)ccc2sn1-c1ccccc1Cl
pIC50: 4.61

C[n+]1c(-c2ccc(C=NNC(=O)c3ccc(C(=O)NN=Cc4ccc(-c5cn6ccccc6[n+]5C)cc4)cc3)cc2)cn2ccccc21
inhibition: inactive

O=C(O)c1cc(N2C(=O)C=CC2=O)cc(N2C(=O)C=CC2=O)c1
inhibition: inactive

Cc1cc(N)c2cc(NC(=O)/C=C/c3ccccc3Cl)ccc2n1
inhibition: inactive

COc1ccc(NC2CCCN(C(=O)C3(C)CCCCC3)C2)cc1 (stereo unspecified)
inhibition: inactive

COc1ccc(Nc2ccc3ccccc3c2)cc1
inhibition: inactive

O=c1c2cc(F)ccc2sn1-c1ccccc1
pIC50: 5.69

Nc1ccc(OCc2ccco2)cc1
inhibition: inactive

Cn1ccc(=Nc2ccc(NC(=O)c3ccc(N=c4ccn(C)c5ccc([N+](=O)[O-])cc45)cc3)cc2)cc1
pIC50: 4.65

CN(C)c1ncc(C2=C(Cl)C(=O)C(N3CCCC3)=C(Cl)C2=O)s1
pIC50: 4.97

O=C1C(=Cc2ccco2)CCC1=Cc1ccco1
pIC50: 4.57

O=c1c2ccccc2sn1-c1ccc(F)cc1
pIC50: 4.45

COC(=O)c1cccc(-n2sc3ccccc3c2=O)c1
inhibition: inactive

O=C1C=CC(=O)N1c1ccccc1N1C(=O)C=CC1=O
pIC50: 4.80

O=C1NC(=S)N(c2ccccc2)C(=O)/C1=C/c1ccco1
pIC50: 5.40

CSc1nc(N)c(N=Nc2ccc([As](=O)(O)O)cc2)c(=O)[nH]1
pIC50: 5.51

O=C(O)c1cc(N2N=C(C(F)(F)F)/C(=C/C=C/c3ccco3)C2=O)ccc1Cl
pIC50: 5.33
